Source: ChEMBL document CHEMBL3507680, “University of Dundee, Gates Library screen for HepG2 cell viability”

Test: Human HepG2 cell viability assay in 384 well format
Format: toxicity, cell-based
Design: dose 125 nL, time 70.5 hour; cytotoxicity at 70.5 h: concentration not given beside the values
Conditions: HepG2 cells, read-out: Inhibition

CC(=O)c1cn(CCC(=O)N[C@H](C(=O)O)C(C)C)c2ccccc12
cytotoxicity at 70.5 h: -4%

Cc1cccc(C(=O)Nc2cccc3c2CCCC3)n1
cytotoxicity at 70.5 h: -1.46%

Cc1cnn(CC2CN(Cc3cccc(OCC(N)=O)c3)CCO2)c1 (stereo not given)
cytotoxicity at 70.5 h: -5.97%

O=C(c1ccnnc1)N1CC[C@H]2C[C@H](c3ccncn3)O[C@@H]2C1
cytotoxicity at 70.5 h: 5.3%

CNC(=O)CS(=O)(=O)C1CCN(S(=O)(=O)c2cccc(C(C)=O)c2)CC1
cytotoxicity at 70.5 h: -6.78%

O=C(C1CC1)N1CCC(c2nc(-c3ccccc3)n[nH]2)CC1
cytotoxicity at 70.5 h: -1.09%

COc1ccc(Oc2cncc(C3CCCN3C(C)=O)n2)cc1 (stereo not given)
cytotoxicity at 70.5 h: 31.7%

Cc1nc(C)n(C2CCCN(C(=O)Cc3cccnc3)C2)n1 (stereo not given)
cytotoxicity at 70.5 h: 3.66%

CCOCCCC(=O)NCc1cn2cc(Br)ccc2n1
cytotoxicity at 70.5 h: -3.96%

Cc1nccn1CCN(C)C(=O)c1cn(CC2CCCCC2)nn1
cytotoxicity at 70.5 h: -25.4%

Cc1ccc(C(=O)N2CCC(O)(CN3CCc4ccccc4C3)C2)s1 (stereo not given)
cytotoxicity at 70.5 h: -2.78%

O=S(=O)(C1CC1)N1CCn2c(Cn3cccn3)cnc2C1
cytotoxicity at 70.5 h: -1.3%

c1cc(CN2CCC[C@@H](Cn3nnc(-c4cnccn4)n3)C2)ccn1
cytotoxicity at 70.5 h: -2.89%

COCCN1CCc2cc(C(=O)NCC3CC3)c(NC(C)C)nc2CC1
cytotoxicity at 70.5 h: 24.8%

CCN(CC)c1ncccc1CNCc1cc2ccccc2s1
cytotoxicity at 70.5 h: -2.63%

c1cc(-c2ccc3c(c2)CCC32CCNCC2)ccn1
cytotoxicity at 70.5 h: 26.1%

NC(=O)c1ccc(OCCCN2CCC3(CC2)OCCCC3O)cc1 (stereo not given)
cytotoxicity at 70.5 h: -1.53%

Cc1cc(C)n(CC(=O)Nc2cc(-c3ccncc3)[nH]n2)n1
cytotoxicity at 70.5 h: -4.82%

O=C1[C@H]2CN(Cc3cccs3)C[C@H]2CN1c1ccsc1
cytotoxicity at 70.5 h: -5.8%

CCn1ccnc1CN1CCCC1c1noc(C2CC2)n1 (stereo not given)
cytotoxicity at 70.5 h: -2.39%

O=C(Nc1nccs1)C1CCCN1Cc1ccccn1 (stereo not given)
cytotoxicity at 70.5 h: -5.74%

Cc1cnn(CC2CCCCN2CCS(C)(=O)=O)c1 (stereo not given)
cytotoxicity at 70.5 h: -1.02%

COC(=O)CCC(=O)Nc1ccc(Br)c(C)n1
cytotoxicity at 70.5 h: -0.954%

CN(Cc1ccoc1)c1ccc(-c2nccn2C)nn1
cytotoxicity at 70.5 h: 26.2%

Cc1cccc(CN2CC[C@@H]3O[C@@H](C(=O)N4CCN(C)CC4)C[C@@H]32)n1
cytotoxicity at 70.5 h: -1.64%

CSc1nccc(N2C[C@@H](CN3CCCCC3)[C@@H](CO)C2)n1
cytotoxicity at 70.5 h: 27.1%

CCc1nc(C)c(C2CC(=O)Nc3c2c(C(C)(C)C)nn3C)[nH]1 (stereo not given)
cytotoxicity at 70.5 h: 0.46%

O=C(NC1CCN(c2ccccc2Br)C1)c1c[nH]nn1 (stereo not given)
cytotoxicity at 70.5 h: -6.49%

C[C@@H]1CN(C(=O)Nc2cccc(OC(F)F)c2)CC(C(N)=O)O1 (stereo not given in full)
cytotoxicity at 70.5 h: -1.07%

Cn1cc(-c2cc(C(F)(F)F)n(CCCN)n2)cn1
cytotoxicity at 70.5 h: 20%

COc1cc(N2C[C@@H](C)[C@](O)(C3CC3)C2)nc(N)n1
cytotoxicity at 70.5 h: -3.32%

CNC(=O)C1CN(C(C)C)CCN1c1ncccn1 (stereo not given)
cytotoxicity at 70.5 h: 2.44%

COc1cc(OC)cc(C2CC(=O)Nc3c2nc2n3CCCC2)c1 (stereo not given)
cytotoxicity at 70.5 h: -3.11%

CCc1c(C)nc2n(c1=O)CC(C(=O)NCc1cccs1)CS2 (stereo not given)
cytotoxicity at 70.5 h: 23%

CCc1nc(C2CCCN2C(=O)c2ccc3c(c2)nnn3CC)no1 (stereo not given)
cytotoxicity at 70.5 h: -3.25%

Cn1cncc1CN1CCc2nc3sccc3c(=O)n2CC1
cytotoxicity at 70.5 h: -19.1%

Cc1occc1C(=O)NCC(=O)NCCCOc1ccc(F)cc1
cytotoxicity at 70.5 h: -17.7%

CN(CCc1cnn(C)c1)C(=O)C1COc2ccccc2C1 (stereo not given)
cytotoxicity at 70.5 h: -10.5%

O=C([C@H]1CCCO1)N1CCC2(CC1)C(=O)N(CC1CC1)c1ccccc12
cytotoxicity at 70.5 h: -1.06%

O=C(NCC1CCSCC1)N(CCCO)C1CCc2ccccc21 (stereo not given)
cytotoxicity at 70.5 h: 24.2%

O=C(NC1CC1)C1CN(c2nc3ccccc3s2)CCN1 (stereo not given)
cytotoxicity at 70.5 h: -7.94%

Cc1cnn(CC(C)NCC(=O)Nc2ccc(Cl)cn2)c1 (stereo not given)
cytotoxicity at 70.5 h: -2.39%

O=C(NCCN1CCNCC1)c1c(O)c2ccccc2[nH]c1=O
cytotoxicity at 70.5 h: 36.3%

Cc1cnn(CC(C)NCc2ccc(S(C)(=O)=O)cc2)c1 (stereo not given)
cytotoxicity at 70.5 h: -1.78%

Cc1nc(CN2CCCC(Cn3cc(CCO)nn3)C2)c[nH]1 (stereo not given)
cytotoxicity at 70.5 h: -1.03%
